The numbers were not newly measured in patent US9072714B2, “Fatty acids for use as a medicament” (Lipid Pharmaceuticals ehf., priority 2008, dated 2015), which cites them from elsewhere.

The conditions of the data set: laxative, by class and site of action.

Turning to `CCCCC(CC)COC(=O)CC(C(=O)OCC(CC)CCCC)S(=O)(=O)O` (centres unmarked) [Docusate], the Onset of action is 12 to 72 h.
`O=C1OC(c2ccc(O)cc2)(c2ccc(O)cc2)c2ccccc21` [Phenolphthalein]: the Onset of action was 6 to 8 h.
